Measurements from patent US8013006B2.
Where two headings read alike, the source gives them in different places.

Experiments:
wild-type poliovirus = format: cell-based; details: Hela cells, MOI 0.1, one day; for WT-PV CPE (1 μM)*: 1 μM compound; for WT-PV CPE (10 μM)*: 10 μM compound; for WT-PV CPE (100 μM) *: 100 μM compound
HCV replicon = assay: microbe, parasite or virus in culture; format: cell-based
[1] = system: cap-dependent translation; assay: Western blot of Fluc reporter protein in pLuc cells; format: cell-based, human; details: 20 hours
[2] = Replicon IC50 values are determined by firefly luciferase signal, bicistronic replicon, 2 days, read-out: Replicon IC5Os
[3] = Hepatitis C virus, 48 h, read-out: Replicon IC5Os
[4] = Hepatitis C virus, 48 h, read-out: Replicon IC5Os μM

SMILES | melting point [°C] | IC50 (HCV replicon; [3]) [µM] | IC50 (HCV replicon; [4]) [µM] | also measured
COc1ccc(-n2cc(C#N)c3ccc(OC)cc32)cc1 [Compound 4] | – | – | – | WT-PV CPE (1 μM)* (wild-type poliovirus): 1; WT-PV CPE (10 μM)* (wild-type poliovirus): 2; WT-PV CPE (100 μM) * (wild-type poliovirus): 3; IC50 (HCV replicon; [2]): > 2 µM
CCn1cc(C#N)c2ccc(OC(C)C)cc21 [Compound 10] | – | – | – | WT-PV CPE (1 μM)* (wild-type poliovirus): 2; WT-PV CPE (10 μM)* (wild-type poliovirus): 2; WT-PV CPE (100 μM) * (wild-type poliovirus): 3; IC50 (HCV replicon; [2]): > 2 µM
CCn1c(-c2ccc(OC)cc2)c(C#N)c2ccc(OC)cc21 [Compound 19] | – | – | – | WT-PV CPE (1 μM)* (wild-type poliovirus): 1; WT-PV CPE (10 μM)* (wild-type poliovirus): 2; WT-PV CPE (100 μM) * (wild-type poliovirus): 3; IC50 (HCV replicon; [2]): > 2 µM
COc1ccc2c(C#N)c(C)n(-c3ccc4c(c3)OCO4)c2c1 [Compound 24] | – | – | – | WT-PV CPE (1 μM)* (wild-type poliovirus): 2; WT-PV CPE (10 μM)* (wild-type poliovirus): 2; WT-PV CPE (100 μM) * (wild-type poliovirus): 3; IC50 (HCV replicon; [2]): 0.5 to 2 µM
COc1ccc2c(C#N)c(-c3ccc(N4CCCS4(=O)=O)cc3)n(CC(C)C)c2c1 [Compound 717] | 205 to 207 | 0.5 to 2 | – | –
COc1ccc2c(C#N)c(-c3cccc(NS(C)(=O)=O)c3)n(C3CCCC3)c2c1 [Compound 720] | 172 to 178 | 0.5 to 2 | – | –
COc1ccc2c(C#N)c(-c3cccc(NC(=O)OC(C)C)c3)n(C3CCCC3)c2c1 [Compound 723] | 175 to 180 | 0.5 to 2 | – | –
CCn1c(-c2ccc(N3CCN(Cc4ccccc4)S3(=O)=O)cc2)c(C#N)c2ccc(OC)cc21 [Compound 727] | 217 to 218 | 0.5 to 2 | – | –
CCn1c(-c2ccc(N3CCCC3=O)cc2)c(C#N)c2ccc(OC(C)C)cc21 [Compound 731] | 173 to 174 | < 0.5 | – | –
COc1ccc2c(C#N)c(-c3ccc(N4CCCC4=O)cc3)n(CCF)c2c1 [Compound 732] | 219 to 221 | 0.5 to 2 | – | –
COC(=O)Nc1ccc(-c2c(C#N)c3ccc(OC(F)F)cc3n2CC2CC2)cc1 [Compound 734] | 167 to 169 | 0.5 to 2 | – | –
CCOC(=O)Nc1ccc(-c2c(C#N)c3ccc(OC(F)F)cc3n2CC2CC2)cc1 [Compound 735] | 123 to 125 | < 0.5 | – | –
CC(C)OC(=O)Nc1ccc(-c2c(C#N)c3ccc(OC(F)F)cc3n2CC2CC2)cc1 [Compound 737] | 153 to 155 | 0.5 to 2 | – | –
N#Cc1c(-c2ccc(NC(=O)OCCF)cc2)n(CC2CC2)c2cc(OC(F)F)ccc12 [Compound 738] | 149 to 151 | < 0.5 | – | –
CCCNC(=O)Nc1ccc(-c2c(C#N)c3ccc(OC(F)F)cc3n2CC2CC2)cc1 [Compound 741] | 194 to 196 | < 0.5 | – | –
CCCCNC(=O)Nc1ccc(-c2c(C#N)c3ccc(OC(F)F)cc3n2CC2CC2)cc1 [Compound 742] | 171 to 173 | 0.5 to 2 | – | –
N#Cc1c(-c2ccc(NC(=O)NC3CCCC3)cc2)n(CC2CC2)c2cc(OC(F)F)ccc12 [Compound 743] | 129 | < 0.5 | – | –
COC(=O)Nc1cccc(-c2c(C#N)c3ccc(OC(F)F)cc3n2CC2CC2)c1 [Compound 744] | 92 to 93 | < 0.5 | – | –
CCCCn1c(-c2ccc(NC(=O)OCCF)cc2)c(C#N)c2ccc(OC)cc21 [Compound 747] | 136 to 137 | < 0.5 | – | –
CCCCn1c(-c2ccc(NC(=O)NCC)cc2)c(C#N)c2ccc(OC)cc21 [Compound 748] | 186 to 188 | < 0.5 | – | –
CCCCn1c(-c2ccc(NC(=O)NCCC)cc2)c(C#N)c2ccc(OC)cc21 [Compound 749] | 176 to 178 | < 0.5 | – | –
CCCCNC(=O)Nc1ccc(-c2c(C#N)c3ccc(OC)cc3n2CCCC)cc1 [Compound 750] | 173 to 174 | < 0.5 | – | –
CCCCn1c(-c2ccc(NC(=O)NC(C)C)cc2)c(C#N)c2ccc(OC)cc21 [Compound 751] | 159 to 162 | 0.5 to 2 | – | –
CCn1c(-c2ccc3c(c2)N(S(C)(=O)=O)CC3)c(C#N)c2ccc(OC)cc21 [Compound 752] | 198 to 202 | 0.5 to 2 | – | –
CCn1c(-c2ccc3c(c2)N(S(=O)(=O)CC)CC3)c(C#N)c2ccc(OC)cc21 [Compound 753, 1′-ethanesulfonyl-1-ethyl-6-methoxy-2′,3′-dihydro-1H,1H′-[2,6′]biindolyl-3-carbonitrile] | 157 to 161 | < 0.5 | – | –

SMILES | melting point [°C] | IC50 (HCV replicon; [3]) [µM] | IC50 (HCV replicon; [4]) [µM] | also measured
CCn1c(-c2ccc(N)cc2)c(C#N)c2ccc(OC(C)C)cc21 [Compound 758] | 149 to 153 | < 0.5 | – | –
CCn1c(-c2ccc(NC(=O)CCc3ccccc3)cc2)c(C#N)c2ccc(OC(C)C)cc21 [Compound 762] | 190 to 193 | < 0.5 | – | –
CCn1c(-c2ccc(NC(=O)c3ccccc3)cc2)c(C#N)c2ccc(OC(C)C)cc21 [Compound 763] | 209.2 to 209.7 | < 0.5 | – | –
CCn1c(-c2ccc(NC(=O)c3ccc(F)cc3)cc2)c(C#N)c2ccc(OC(C)C)cc21 [Compound 764] | 213.5 to 231.7 | – | < 0.5 | –
CCOc1ccc2c(C#N)c(-c3ccc(NC(=O)NCCCl)cc3)n(CC)c2c1 [Compound 774] | 205 to 206 | – | 0.5 to 2 | –
COc1ccc2c(C#N)c(-c3cccc(N4CCCS4(=O)=O)c3)n(C(C)C)c2c1 [Compound 784] | 245 to 246 | – | 0.5 to 2 | –
CCCS(=O)(=O)Nc1ccc(-c2c(C#N)c3cc(OC)ccc3n2CC)cc1 [Compound 789] | 154 to 156 | – | < 0.5 | –
CCn1c(-c2ccc(NS(=O)(=O)C3CC3)cc2)c(C#N)c2cc(OC)ccc21 [Compound 791] | 149 to 152 | – | < 0.5 | –
CCn1c(-c2ccc(NC(=O)OC)cc2)c(C#N)c2cc(OC)ccc21 [Compound 792] | 182 to 185 | – | < 0.5 | –
CCOC(=O)Nc1ccc(-c2c(C#N)c3cc(OC)ccc3n2CC)cc1 [Compound 793] | 154 to 155 | – | < 0.5 | –
CCCOC(=O)Nc1ccc(-c2c(C#N)c3cc(OC)ccc3n2CC)cc1 [Compound 794] | 149 to 151 | – | < 0.5 | –
CCn1c(-c2ccc(NC(=O)OC(C)C)cc2)c(C#N)c2cc(OC)ccc21 [Compound 795] | 183 to 185 | – | < 0.5 | –
CCn1c(-c2ccc(NC(=O)C3CCC3)cc2)c(C#N)c2ccc(OC)cc21 [Compound 801] | 199 to 219 | – | < 0.5 | –
CCn1c(-c2ccc(NC(=O)Cc3ccccc3)cc2)c(C#N)c2ccc(OC)cc21 [Compound 802] | 196 to 198 | – | 0.5 to 2 | –
CCn1c(-c2ccc(N3CCCC3=O)cc2)c(C#N)c2ccc(OC(F)F)cc21 [Compound 807] | 171 to 172 | – | < 0.5 | –
C=CCNC(=O)Nc1cccc(-c2c(C#N)c3ccc(OC)cc3n2Cc2ccccc2)c1 [Compound 818] | 158 to 159 | – | < 0.5 | –
CC(C)OC(=O)Nc1ccc(-c2c(C#N)c3ccc(OC(F)F)cc3n2C2CCC2)cc1 [Compound 822] | 144 to 145 | – | 0.5 to 2 | –
CCCn1c(-c2ccc(NS(=O)(=O)C3CC3)cc2)c(C#N)c2ccc(OC(F)F)cc21 [Compound 827] | 189 to 191 | – | < 0.5 | –
CCOc1ccc(-c2c(C#N)c3ccc(NS(C)(=O)=O)cc3n2CC)cc1 [Compound 834] | 179 to 180 | – | 0.5 to 2 | –
CCCn1c(-c2ccc(NC(=O)NCCc3ccccc3)cc2)c(C#N)c2ccc(OC)cc21 [Compound 848] | 193 to 194 | – | 0.5 to 2 | –
CCCn1c(-c2ccc(NS(=O)(=O)CCCCl)cc2)c(C#N)c2ccc(OC)cc21 [Compound 850] | 179 to 180 | – | 0.5 to 2 | –
CCCn1c(-c2ccc(NS(=O)(=O)C3CC3)cc2)c(C#N)c2ccc(OC)cc21 [Compound 851] | 186 to 187 | – | 0.5 to 2 | –
CCn1c(-c2ccc(NC(=O)C3CCC3)cc2)c(C#N)c2cc(OC)ccc21 [Compound 859] | 191 to 192 | – | 0.5 to 2 | –
COc1ccc(C[C@H](N)C(=O)N[C@H]2[C@@H](O)[C@H](n3cnc4c(N(C)C)ncnc43)O[C@@H]2CO)cc1 [puromycin] | – | – | – | luciferase reporter protein level (cap-dependent), Western blot [1]: inhibited
